Patent US8906936B2, “Pharmaceutical combination comprising co-administration of taxane and N-(1-cyclohexyl-2-{2-[4-(4-fluoro-benzoyl)-thiazol-2-yl]-pyrrolidin-1-yl}-2-oxo-ethyl)-2-methylamino-propionamide or pharmaceutically acceptable salt(s) thereof” (Novartis AG, priority 2005, dated 2014)

Columns and labels:
MDA231 = assay: 72 hr MTS assay, LBW242 with or without Taxol, MDA231; format: cell-based, human
Text: (§1) 1. […] MTS Data is generated as described below:
(§2) Selection of IAP Inhibitor Dose Levels

SKOV3 = assay: 72 hr MTS assay, LBW242 with or without Taxol, SKOV3; format: cell-based, human
Text: as §1, §2

BIR3 domain of CIAP1 = BIR3 domain of CIAP1 (Homo sapiens, UniProt Q13490); assay: affinity for BIR3 domain of CIAP1; format: binding
Chain of BIR3 domain of CIAP1 (Q13490 253-363 limits assumed): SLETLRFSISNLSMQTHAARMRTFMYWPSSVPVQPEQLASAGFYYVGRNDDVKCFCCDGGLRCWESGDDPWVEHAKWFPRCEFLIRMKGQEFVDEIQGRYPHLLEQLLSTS

[1] = test system: tumor cell lines representing lung, ovarian, melanoma, pancreatic cancers; assay: 72 hr MTS assay, panels of tumor cell lines (lung, ovarian, melanoma, pancreatic)
Description: To determine whether the spectrum of tumor cell lines which responded to these agents would be wider in combination with the cytotoxic drug Taxol, we subject panels of tumor cell lines representing a number of human cancers to in vitro combination analyses.
MTS Reagent (#G1111; Promega) in PBS, pH 6-6.5. […] Tumor Cell Lines are purchased from ATCC.
Cell proliferation/cell death is analyzed in 72 hr. […] Tumor cell lines are plated at subconfluent densities in 96 well plate format and allowed to adhere for 12-16 hr. Cpds are then added according to the following schemes: i.
Chemotherapeutic agents or cytotoxic cpds (Ctx) are added alone, in an 8-point/10-fold titration scheme from high to low dose, in triplicate. ii. […] Once all dosing is completed, cells are cultured for a further 72 hr. and then assayed using the MTS format:
Plate cells in RPMI/10% FBS Complete medium. […]
Add MTS/PMS reagents to T.0 Plate(s). […] Read OD 490 nm using SoftMax Pro software on a Molecular Devices (Sunnyvale, Calif.) Spectrophotometer. Calculate T.0 values for each cell line to be assayed by generating the mean value of the OD 490 nm readings from each cell line's T.0 wells (6/cell line) and subtracting the mean OD 490 nm values from Blank wells. […]
Add 20 ul mixture to ea. well & incubate plate(s) 2 hr. @ 37° C./5% CO2. Read OD 490 nm using SoftMax Pro software on a Molecular Devices Spectrophotometer. […]

BIR3 domain of XIAP = BIR3 domain of XIAP (Homo sapiens, UniProt P98170); assay: affinity for BIR3 domain of XIAP; format: binding
Chain of BIR3 domain of XIAP (P98170 241-356 limits assumed): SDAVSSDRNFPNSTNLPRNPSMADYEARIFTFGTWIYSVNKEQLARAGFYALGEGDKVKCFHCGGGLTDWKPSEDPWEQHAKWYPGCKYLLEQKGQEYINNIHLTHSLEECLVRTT

[2] = test system: ovarian carcinoma line SKOV3; assay: anti-proliferative activity of combination with Docetaxel in SKOV3 in vitro; format: cell-based; settings: across a dose range
Text: FIG. 1 indicates anti-proliferative activity of compound of formula (III) alone (bottom row), Docetaxel alone (most leftward column) and combinations of the two agents across a dose range. FIG. 2 is the corresponding isobologram at 70% growth inhibition.

[3] = test system: orthotopic breast cancer model MDA-MB-231; assay: orthotopic breast cancer model MDA-MB-231, anti-tumor activity; format: in vivo; settings: in combination with Paclitaxel; established tumors treated for two weeks; compared to either single agent
melanoma cell line A375 = assay: three day proliferation assay in A375; format: cell-based
Description: Bottom two curves show Taxol dose response in presence of either 6 μM or 12 μM compound of formula (III).

[4] = criterion: minimum five fold potency shift of Taxol IC50 relative to Taxol alone

CN[C@@H](C)C(=O)N[C@H](C(=O)N1CC[C@H]2CCN(CCc3ccccc3)C[C@H]21)C1CCCCC1 [LBW242]
combination activity with Taxol (MDA231; [4]): exhibit combination activity | response to monotherapy (MDA231; single agent): responsive | combination activity with Taxol (SKOV3; [4]): exhibit combination activity | response to monotherapy (SKOV3; single agent): responsive | affinity (BIR3 domain of CIAP1): nM affinity | range of tumor cell lines sensitive in combination with a cytotoxic agent versus as a single agent ([1]; in combination with Taxol): slightly larger | single agent activity across tumor cell lines ([1]; single agent, in vitro): single agent activity on a limited number of tumor cell lines

CN[C@@H](C)C(=O)N[C@H](C(=O)N1CCC[C@H]1c1nc(C(=O)c2ccc(F)cc2)cs1)C1CCCCC1 [LCL161]
affinity (BIR3 domain of XIAP): nM affinity

CN[C@@H](C)C(=O)N[C@H](C(=O)N1CC[C@H]2CCN(CCc3ccccc3)C[C@H]21)C1CCCCC1 [compound of formula (III)]
interaction of the combination with Docetaxel (anti-proliferative activity) [2]: significant synergy | anti-tumor activity of the combination with Paclitaxel [3]: superior anti-tumor activity compared to either agent administered as a single agent | anti-proliferative activity of Taxol in combination (melanoma cell line A375; Taxol dose response in presence of 6 μM or 12 μM compound of formula (III), A375, three day): dramatically enhanced | stand alone activity (melanoma cell line A375; single agent, A375 (data not shown)): no stand alone activity
